Measured values: patent US12371404B2, “Fused bicyclic alkylene linked imidodicarbonimidic diamides, methods for synthesis, and uses in therapy” (NovaTarg, Inc., priority 2016, dated 2025)
Counter-ions that a name gives are not always drawn. Like-named read-outs stand apart in the source and are kept apart here.

How the values were obtained:
human MATE1 = target: T1, human MATE1 (Homo sapiens, UniProt Q96FL8); assay: Oxygen consumption rate (OCR) assay, HEK293 cells transfected with MATE1
T1 sequence (Q96FL8 1-570): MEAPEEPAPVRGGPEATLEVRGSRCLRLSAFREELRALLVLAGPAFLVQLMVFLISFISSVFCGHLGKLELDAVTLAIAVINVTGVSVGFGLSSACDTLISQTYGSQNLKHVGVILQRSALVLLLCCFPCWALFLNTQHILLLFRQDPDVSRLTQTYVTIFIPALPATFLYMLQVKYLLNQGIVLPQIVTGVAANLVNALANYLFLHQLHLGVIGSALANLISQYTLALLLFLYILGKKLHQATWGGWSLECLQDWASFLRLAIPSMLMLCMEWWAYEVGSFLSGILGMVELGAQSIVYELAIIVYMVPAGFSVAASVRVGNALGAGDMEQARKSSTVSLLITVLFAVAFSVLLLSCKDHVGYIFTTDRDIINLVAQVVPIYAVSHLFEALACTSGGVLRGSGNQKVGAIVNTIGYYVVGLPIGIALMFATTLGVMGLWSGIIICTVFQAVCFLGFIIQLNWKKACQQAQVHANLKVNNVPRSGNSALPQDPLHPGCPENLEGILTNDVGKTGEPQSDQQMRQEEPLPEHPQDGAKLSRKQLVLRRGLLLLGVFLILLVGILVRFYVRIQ

control (Neo) cells = assay: Oxygen consumption rate (OCR) assay, control (Neo) HEK293 cells; format: cell-based; conditions: Homo sapiens, read-out: Oxygen Consumption Rate (OCR) IC50, Neo
human OCT2 = target: T2, human OCT2 (Homo sapiens, UniProt O15244); assay: Oxygen consumption rate (OCR) assay, HEK293 cells transfected with OCT2; conditions: HEK293 cells stably transfected with human OCT2; MitoXpress Xtra, 2 hours
T2 sequence (O15244 1-555): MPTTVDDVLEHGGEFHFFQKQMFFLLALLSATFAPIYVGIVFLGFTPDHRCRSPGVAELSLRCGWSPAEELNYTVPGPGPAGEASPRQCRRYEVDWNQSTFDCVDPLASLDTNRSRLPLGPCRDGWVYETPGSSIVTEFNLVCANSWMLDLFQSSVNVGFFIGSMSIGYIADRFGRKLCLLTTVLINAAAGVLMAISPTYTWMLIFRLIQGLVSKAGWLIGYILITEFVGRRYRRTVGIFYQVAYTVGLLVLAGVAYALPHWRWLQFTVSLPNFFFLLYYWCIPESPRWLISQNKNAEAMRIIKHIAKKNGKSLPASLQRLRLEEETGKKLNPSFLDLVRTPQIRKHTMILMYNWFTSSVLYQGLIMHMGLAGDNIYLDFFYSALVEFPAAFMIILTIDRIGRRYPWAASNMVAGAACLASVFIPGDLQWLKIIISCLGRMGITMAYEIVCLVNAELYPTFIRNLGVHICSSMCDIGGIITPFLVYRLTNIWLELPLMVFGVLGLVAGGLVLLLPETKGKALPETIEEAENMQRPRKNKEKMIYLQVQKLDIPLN
Source text: (§1) Diabetologia 2011, 54 (12): 3101-3110, each incorporated by reference with regard to such testing. The compounds of the present invention are similarly tested in an oxygen consumption rate (OCR) assay to evaluate the functional activity of test compounds in cells.
(§2) In brief, the assay uses HEK293 cells stably transfected with the human OCT1, OCT2, OCT3, PMAT, or MATE1 transporters to determine a compound's relative transporter selectivity and its effect on the rate of oxygen consumption relative to control (Neo) cells. The MitoXpress Xtra oxygen-sensitive fluorophore is used to monitor oxygen consumption rates in the presence and absence of compound treatments. The analogs were tested at eight (8) different concentrations in triplicate to determine a relative IC50 value.
(§3) A summary description of the protocol is as follows:
HEK293 cells transformed with human organic cation transporters were plated in collagen coated, 96-well black-walled microclear plates (Greiner-Bio 1, #655956) at 60,000 cells per well in growth medium (DMEM (LG), 10% FBS, 400 μg/ml G418). Cells were incubated overnight to allow attachment. The outer columns (1 and 12) are not seeded with cells, as controls. The next day, plating medium was removed and replaced with 150 μL of assay medium (DMEM/F12 (PRF), 5% FBS, antibiotics) containing compound dilutions. A 3-fold serial dilution was prepared in the assay medium and transferred to the empty wells. The outer columns and column 11 received 150 μL of assay medium only. […] Dual read time-resolved fluorescence (BMG FluoStar Galaxy reader) was measured over 2 hours with measurements taken every 2 minutes. […] Background TRF values from A1-D1 were subtracted from all readings. A ratiometric analysis was performed to determine changes in the Lifetime fluorescence signal:Lifetime (μs) [T]=(D2−D1)/ln(W1/W2), where D is delay; W is fluorescence window value at each time point. Lifetime slopes were calculated using each Lifetime measurement over time. IC50 values were determined by plotting lifetime slope values vs. compound concentration.

human PMAT = target: T3, human PMAT (Homo sapiens, UniProt Q7RTT9); assay: Oxygen consumption rate (OCR) assay, HEK293 cells transfected with PMAT; format: cell-based
T3 construct: expressed in transfected cells; host or cells: HEK293
T3 sequence (Q7RTT9 1-530): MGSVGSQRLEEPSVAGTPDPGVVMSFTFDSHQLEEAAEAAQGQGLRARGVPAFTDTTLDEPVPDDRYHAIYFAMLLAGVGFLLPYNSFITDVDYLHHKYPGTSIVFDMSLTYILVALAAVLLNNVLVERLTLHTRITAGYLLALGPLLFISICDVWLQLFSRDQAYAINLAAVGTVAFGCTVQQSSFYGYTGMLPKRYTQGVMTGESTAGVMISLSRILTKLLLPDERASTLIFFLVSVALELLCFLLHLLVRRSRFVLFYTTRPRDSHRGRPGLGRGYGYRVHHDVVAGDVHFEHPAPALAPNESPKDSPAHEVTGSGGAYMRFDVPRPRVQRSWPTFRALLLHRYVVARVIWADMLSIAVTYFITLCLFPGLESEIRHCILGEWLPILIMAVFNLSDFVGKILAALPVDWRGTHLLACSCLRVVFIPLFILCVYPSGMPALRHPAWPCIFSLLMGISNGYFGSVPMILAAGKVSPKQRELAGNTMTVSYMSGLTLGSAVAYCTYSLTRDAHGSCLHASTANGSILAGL
Source text: as §1, §2, §3
HEK293 cells transformed with human organic cation transporters were plated in collagen coated, 96-well black-walled microclear plates (Greiner-Bio 1, #655956) at 60,000 cells per well in growth medium (DMEM (LG), 10% FBS, 400 μg/ml G418). Cells were incubated overnight to allow attachment. The outer columns (1 and 12) are not seeded with cells, as controls. The next day, plating medium was removed and replaced with 150 μL of assay medium (DMEM/F12 (PRF), 5% FBS, antibiotics) containing compound dilutions. A 3-fold serial dilution was prepared in the assay medium and transferred to the empty wells. The outer columns and column 11 received 150 μL of assay medium only. 10 μL of MitoXpress Xtra reagent was added to each test well, and 100 μL of pre-warmed mineral oil was overlayed in each well to create a seal. Dual read time-resolved fluorescence (BMG FluoStar Galaxy reader) was measured over 2 hours with measurements taken every 2 minutes. Excitation is 340 nm, Emission is 650 nm. For lifetime analysis, two measurements per well were taken: 1) delay of 30 μs, with a window of 30 μs; and 2) delay of 70 μs with a window of 30 μs. Background TRF values from A1-D1 were subtracted from all readings. A ratiometric analysis was performed to determine changes in the Lifetime fluorescence signal:Lifetime (μs) [T]=(D2−D1)/ln(W1/W2), where D is delay; W is fluorescence window value at each time point. Lifetime slopes were calculated using each Lifetime measurement over time. IC50 values were determined by plotting lifetime slope values vs. compound concentration.

[1] = diabetic cancer patients taking metformin during neoadjuvant chemotherapy; versus 8% not receiving metformin, P=0.007; cited from earlier work
[2] = NASH, dose up to 1 g twice daily (BID); cited from earlier work
[3] = diabetic patients receiving metformin; cited from earlier work
[4] = T2D patients treated with metformin, retrospective studies; cited from earlier work

| SMILES | IC50 (human MATE1) [µM] | IC50 (control (Neo) cells; HEK293, 2 h) [µM] | Oxygen Consumption Rate (OCR) IC50, OCT 2 (human OCT2) [µM] | IC50 (human PMAT) [µM] | pathological complete response rate [1] [%] | IC50 (control (Neo) cells; control (Neo) HEK293 cells, MitoXpress Xtra, 2 hours) [µM] | patients with improvement in liver pathology and ALT [2] [%] | decrease in breast cancer compared with those on other therapies [3] [%] | reduced cancer burden than patients on other treatments [4] [%] | IC50 (human PMAT; HEK293 cells stably transfected with human PMAT, MitoXpress Xtra, 2 hours, read-out: Oxygen Consumption Rate (OCR) IC50, PMAT) [µM] |
| --- | --- | --- | --- | --- | --- | --- | --- | --- | --- | --- |
| N=C(N)NC(=N)NCCc1c[nH]c2c(F)cccc12 [Ex 3, 1-[2-(7-fluoro-1H-indol-3-yl)ethyl]imidodicarbonimide diamide] | 20 | 677 | 7 | 4 |  |  |  |  |  |  |
| CN(C)C(=N)NC(=N)N [Metformin] |  |  |  |  | 24 | > 3000 | 30 | 56 | ~40 | 288 |
| N=C(N)NC(=N)NCCc1c[nH]c2cccc(F)c12 [Ex 26, 1-[2-(4-fluoro-1H-indol-3-yl)ethyl]imidodicarbonimide diamide, trifluoroacetic acid salt] |  | 90 | 2 | 2 |  |  |  |  |  |  |
| N=C(N)NC(=N)NCCc1c[nH]c2cc(F)ccc12 [Ex 11, 1-[2-(6-fluoro-1H-indol-3-yl)ethyl]imidodicarbonimide Diamide Trifluoroacetic Acid Salt] | 57 | 214 | 12 | 3 |  |  |  |  |  |  |
